Among the data in patent US10017523B2, “NAMPT inhibitors and methods” (Genzyme Corporation, priority 2014, dated 2018) are IC50 values, retold here.

Each structure is given as a SMILES string.

Test [1] deals with primary human T cells. Nature of the test: Anti-proliferative activity on T cells (CD3/CD28 stimulated, CellTiterGlo). The format is cell-based. The settings on record: T-cell, 72 h, CD3/CD28 beads. The procedure: Fresh primary human T cells obtained from Analytical Biological Services (Wilmington, Del.) were diluted to 1×10^^6 cells per ml in AIM-V medium (Invitrogen), and stimulated with CD3/CD28 beads (Invitrogen) in the absence or presence of inhibitor for 72 hours at 37° C./5% CO2 prior to viability determination using CellTiterGlo (Promega) per manufacturer's instruction.
(§1) The 50% inhibitory concentration (IC50) is the concentration at which 50% of the maximal activity was inhibited.
A general note: ATP-based viability assays read luminescence as a measure of living cells.

Test [2] relates to chronic myelogenous leukemia (K562). Nature of the test: Anti-proliferative activity on K562 cell line. The format is cell-based. The settings on record: Homo sapiens, K562, 72 h, CellTiterGlo. The procedure: (§2) Leukemia/Lymphoma cell lines (ATCC) were diluted in vendor-recommended media and incubated in the absence or presence of inhibitor for 72 hours at 37° C./5% CO2 prior to viability determination using CellTiterGlo (Promega) per manufacturer's instruction. The human cell lines studied include acute T-cell leukemia (JURKAT), chronic myelogenous leukemia (K562), and B-cell acute lymphocytic leukemia (NALM6 and SUP-B15).

The target of test [3] is T1, Recombinant NAMPT enzyme (Homo sapiens, UniProt P43490).
T1 construct: purchased MBL
Put plainly: Inhibition of NAMPT enzymatic activity. The format is biochemical. The note with it: 6 hours at 37° C., NMN product detected. The method, then: Recombinant NAMPT enzyme (MBL) was briefly pre-incubated in the absence or presence of inhibitor followed by addition of nicotinamide. Enzymatic reaction was allowed to proceed for 6 hours at 37° C. Reaction was terminated and NMN reaction product detected using the method as described in: Zhang R Y, Qin Y, Lv X Q, Wang P, Xu T Y, Zhang L, Miao C Y., Anal. Biochem. 2011 May 1; 412(1):18-25.
as §1

The subject of test [4] is B-cell acute lymphocytic leukemia (NALM6). Nature of the test: Anti-proliferative activity on NALM6 cell line. The format is cell-based. The settings on record: Homo sapiens, NALM-6, 72 h, CellTiterGlo. The procedure:
as §2

Test [5] has as its system acute T-cell leukemia (JURKAT). Put plainly: Anti-proliferative activity on JURKAT cell line. In kind it is cell-based. The note with it: Homo sapiens, 72 h, CellTiterGlo. The procedure:
as §2

The subject of test [6] is B-cell acute lymphocytic leukemia (SUP-B15). Nature of the test: Anti-proliferative activity on SUP-B15 cell line. The format is cell-based. The settings on record: Homo sapiens, SUP-B15, 72 h, CellTiterGlo. The procedure:
as §2

Test [7] relates to primary human B cells. Put plainly: Anti-proliferative activity on B cells (anti-IgM stimulated, CellTiterGlo). In kind it is cell-based. The settings on record: B-cell, 72 h, anti-IgM 10 ug/ml. The method, then:
Fresh primary human B cells obtained from Analytical Biological Services (Wilmington, Del.) were diluted to 1×10^^6 cells per ml in AIM-V medium (Invitrogen), and stimulated with anti-IgM (10 ug/ml) (KPL) in the absence or presence of inhibitor for 72 hours at 37° C./5% CO2 prior to viability determination using CellTiterGlo (Promega) per manufacturer's instruction.
as §1

T1 sequence (P43490 whole entry): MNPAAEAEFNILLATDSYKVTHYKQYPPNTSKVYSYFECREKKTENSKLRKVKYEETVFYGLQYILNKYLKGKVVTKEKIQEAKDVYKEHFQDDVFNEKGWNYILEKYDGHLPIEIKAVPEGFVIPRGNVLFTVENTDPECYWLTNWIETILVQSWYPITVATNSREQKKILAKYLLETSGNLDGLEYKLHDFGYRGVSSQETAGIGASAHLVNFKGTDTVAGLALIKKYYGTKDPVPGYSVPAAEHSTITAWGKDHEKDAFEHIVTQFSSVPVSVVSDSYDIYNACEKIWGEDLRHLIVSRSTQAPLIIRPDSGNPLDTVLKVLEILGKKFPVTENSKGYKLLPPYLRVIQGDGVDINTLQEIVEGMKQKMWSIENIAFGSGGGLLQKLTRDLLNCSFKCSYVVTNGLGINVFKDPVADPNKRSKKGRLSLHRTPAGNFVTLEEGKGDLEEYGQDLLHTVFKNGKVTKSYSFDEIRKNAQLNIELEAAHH

For orientation: IC50 means the point on the concentration scale where inhibition reaches its midpoint. As to `CC(C)N1CCC2(CC1)Oc1ccc(-c3ccc(C(=O)NCc4cncc(F)c4)cc3)cc1C(=O)N2C` [N-((5-fluoropyridin-3-yl)methyl)-4-(1′-isopropyl-3-methyl-4-oxo-3,4-dihydrospiro[benzo[e][1,3]oxazine-2,4′-piperidin]-6-yl)benzamide], the IC50 was found to be 1 µM in test [1]; 0.0283 µM in test [2]; 0.0035 µM in test [3]; 0.00356 µM in test [4]; 0.00704 µM in test [5]; 0.000606 µM in test [6]. Besides, the half-inhibitory concentration (IC50) in test [7] was 0.006 µM.

As for `CCCN1CCC2(C=Cc3cc(-c4ccc(C(=O)NCc5cc(C)no5)cn4)ccc3O2)CC1` [N-((3-methylisoxazol-5-yl)methyl)-6-(1′-propylspiro[chromene-2,4′-piperidin]-6-yl)nicotinamide], the IC50 in test [1] was determined as 0.342 µM; in test [2] it was 0.0258 µM; in test [3], 0.001 µM; in test [4], 0.00363 µM; in test [5] it was 0.00638 µM; in test [6], 0.00104 µM. Moreover, half-maximal inhibition in test [7] (IC50) was put at 0.0044 µM.

`CCCN1CCC2(CC1)CC(=O)c1cc(-c3ccc(C(=O)NCc4cc(C)no4)cc3)ccc1O2` [N-((3-methylisoxazol-5-yl)methyl)-4-(4-oxo-1′-propylspiro[chroman-2,4′-piperidin]-6-yl)benzamide]: the IC50 was 0.677 µM in test [1]; 0.025 µM in test [2]; 0.002 µM in test [3]; 0.00674 µM in test [4]; 0.00778 µM in test [5]; 0.00207 µM in test [6]. In test [7], this molecule displayed an IC50 of 0.0129 µM.

Regarding `Cc1ccc(CNC(=O)c2ccc(-c3ccc4c(c3)C(=O)N(C)C3(CCN(C(C)C)CC3)O4)cc2)cn1` [4-(1′-isopropyl-3-methyl-4-oxo-3,4-dihydrospiro[benzo[e][1,3]oxazine-2,4′-piperidin]-6-yl)-N-((6-methylpyridin-3-yl)methyl)benzamide], the IC50 in test [1] is 4.62 µM; in test [2] it was 0.0283 µM; in test [3] it was 0.002 µM; in test [4], 0.00526 µM; in test [5], 0.00767 µM; in test [6], 0.000663 µM. Further, in test [7], the IC50 worked out at 0.0153 µM.

For `CCCCN1CCC2(CC1)CC(=O)c1cc(-c3ccc(C(=O)NCc4cncs4)cn3)ccc1O2` [6-(1′-butyl-4-oxospiro[chroman-2,4′-piperidin]-6-yl)-N-(thiazol-5-ylmethyl)nicotinamide], the half-inhibitory concentration (IC50) in test [1] came to 1.88 µM; in test [2], 0.0198 µM; in test [3], 0.0299 µM; in test [4], 0.00573 µM; in test [5], 0.00885 µM; in test [6], 0.00103 µM. The molecule further showed an IC50 in test [7] of 0.0248 µM.

Consider `CC(C)N1CCC2(CC1)CC(=O)c1cc(-c3ccc(C(=O)NCc4cnn(C)c4)cn3)ccc1O2` [6-(1′-isopropyl-4-oxospiro[chroman-2,4′-piperidin]-6-yl)-N-((1-methyl-1H-pyrazol-4-yl)methyl)nicotinamide], for which the half-inhibitory concentration (IC50) in test [1] amounted to 5.59 µM; in test [2], 0.304 µM; in test [3] it was 0.014 µM; in test [4] it was 0.102 µM; in test [5], 0.209 µM; in test [6], 0.0141 µM. The same molecule showed an IC50 in test [7] of 0.0598 µM.

As for `CCCN1CCC2(CC1)CC(=O)c1cc(-c3ccc(C(=O)NCc4cc(C)no4)cn3)ccc1O2` [N-((3-methylisoxazol-5-yl)methyl)-6-(4-oxo-1′-propylspiro[chroman-2,4′-piperidin]-6-yl)nicotinamide], the half-inhibitory concentration (IC50) worked out at 0.731 µM in test [1]; 0.0194 µM in test [2]; 0.001 µM in test [3]; 0.00226 µM in test [4]; 0.00354 µM in test [5]; 0.000706 µM in test [6]. This molecule came in with an IC50 in test [7] of 0.0059 µM.

Turning to `CC(C)N1CCC2(CC1)CC(=O)c1cc(-c3ccc(C(=O)NCc4cccnc4F)cc3)ccc1O2` [N-((2-fluoropyridin-3-yl)methyl)-4-(1′-isopropyl-4-oxospiro[chroman-2,4′-piperidin]-6-yl)benzamide], the IC50 was 5.79 µM in test [1]; 0.00294 µM in test [2]; 0.001 µM in test [3]; 0.00348 µM in test [4]; 0.00366 µM in test [5]; 0.00147 µM in test [6]. The same molecule had an IC50 in test [7] of 0.0099 µM.

For the molecule `Cc1ccc(CNC(=O)c2ccc(-c3ccc4c(c3)C(=O)CC3(CCN(C(C)C)CC3)O4)c(F)c2)cn1` [3-fluoro-4-(1′-isopropyl-4-oxospiro[chroman-2,4′-piperidin]-6-yl)-N-((6-methylpyridin-3-yl)methyl)benzamide], the IC50 stood at 8.51 µM in test [1]; 1.73 µM in test [2]; 0.002 µM in test [3]; 0.0107 µM in test [4]; 0.0213 µM in test [5]; 0.00222 µM in test [6]. In addition, the IC50 in test [7] came to 0.0539 µM.

For `COCCCN1CCC2(CC1)CC(=O)c1cc(-c3ccc(C(=O)NCc4cncs4)cn3)ccc1O2` [6-(1′-(3-methoxypropyl)-4-oxospiro[chroman-2,4′-piperidin]-6-yl)-N-(thiazol-5-ylmethyl)nicotinamide], the IC50 in test [1] was 3.29 µM; in test [2], 0.0544 µM; in test [3], 0.141 µM; in test [4], 0.00938 µM; in test [5], 0.0196 µM; in test [6], 0.00183 µM. For the same molecule, the IC50 in test [7] amounted to 0.0438 µM.

For the molecule `COCCCCN1CCC2(CC1)CC(=O)c1cc(-c3ccc(C(=O)NCc4cncc(F)c4)cn3)ccc1O2` [N-((5-fluoropyridin-3-yl)methyl)-6-(1′-(4-methoxybutyl)-4-oxospiro[chroman-2,4′-piperidin]-6-yl)nicotinamide], the IC50 in test [1] was 5.45 µM; in test [2] it was 0.0294 µM; in test [3] it was 0.0042 µM; in test [4], 0.00483 µM; in test [5] it was 0.0121 µM; in test [6], 0.000847 µM. In test [7], this molecule yielded an IC50 of 0.0109 µM.

`CC(C)N1CCC2(CC1)Oc1ccc(-c3ccc(C(=O)NCc4cnn(C)c4)cn3)cc1C(=O)N2C` [6-(1′-isopropyl-3-methyl-4-oxo-3,4-dihydrospiro[benzo[e][1,3]oxazine-2,4′-piperidin]-6-yl)-N-((1-methyl-1H-pyrazol-4-yl)methyl)nicotinamide]: the IC50 in test [1] worked out at 6.11 µM; in test [2], 0.629 µM; in test [3], 0.015 µM; in test [4], 0.122 µM; in test [5] it was 0.181 µM; in test [6] it was 0.0209 µM. For the same molecule, in test [7], half-maximal inhibition (IC50) required 0.0977 µM.

For the molecule `CCCN1CCC2(CC1)CC(=O)c1cc(-c3ccc(C(=O)NCc4cncc(F)c4)cc3)ccc1O2` [N-((5-fluoropyridin-3-yl)methyl)-4-(4-oxo-1′-propylspiro[chroman-2,4′-piperidin]-6-yl)benzamide], the 50% inhibitory concentration (IC50) was determined as 1.97 µM in test [1]; 0.0187 µM in test [2]; 0.003 µM in test [3]; 0.00315 µM in test [4]; 0.00707 µM in test [5]; 0.000556 µM in test [6]. In addition, it took 0.0074 µM to reach half-maximal inhibition in test [7] (IC50).

On to `CCc1cc(CNC(=O)c2ccc(-c3ccc4c(c3)C(=O)CC3(CCN(C(C)C)CC3)O4)cc2)on1` [N-((3-ethylisoxazol-5-yl)methyl)-4-(1′-isopropyl-4-oxospiro[chroman-2,4′-piperidin]-6-yl)benzamide], for which the IC50 in test [1] was determined as 1.72 µM; in test [2], 0.0447 µM; in test [3], 0.001 µM; in test [4] it was 0.00742 µM; in test [5], 0.0122 µM; in test [6] it was 0.0023 µM. In addition, the IC50 in test [7] was determined as 0.0213 µM.

For `CCCN1CCC2(CC1)CC(=O)c1cc(-c3ccc(C(=O)NCc4cncs4)cn3)ccc1O2` [6-(4-oxo-1′-propylspiro[chroman-2,4′-piperidin]-6-yl)-N-(thiazol-5-ylmethyl)nicotinamide], the concentration for half-maximal inhibition (IC50) in test [1] stood at 1.08 µM; in test [2], 0.0357 µM; in test [3] it was 0.0667 µM; in test [4] it was 0.0119 µM; in test [5], 0.0163 µM; in test [6], 0.00189 µM. This molecule also returned an IC50 in test [7] of 0.0152 µM.

Turning to `COCCCN1CCC2(C=Cc3cc(-c4ccc(C(=O)NCc5cncs5)cn4)ccc3O2)CC1` [6-(1′-(3-methoxypropyl)spiro[chromene-2,4′-piperidin]-6-yl)-N-(thiazol-5-ylmethyl)nicotinamide], the half-maximal inhibitory concentration (IC50) is 5.79 µM in test [1]; 0.0858 µM in test [2]; 0.0564 µM in test [3]; 0.0139 µM in test [4]; 0.0017 µM in test [6]; 0.0455 µM in test [7].
